Results from patent US7132438B2, “Benzimidazole derivatives” (priority 2001, dated 2006).
pIC50: −log10 of the molar value. Read-outs that look alike come from different tables or passages of the source.

Experiments:
IRAK-4 = molecular target: T1, IRAK-4 (Homo sapiens, UniProt Q9NWZ3); test: Enzymatic inhibition assay, IRAK-4 kinase activity (chemiluminescent ELISA); assay type: biochemical; conditions: for IC50: recombinant full-length IRAK-4, 10 μM ATP, 60 min room temperature, read-out: IC50 values (μM) IRAK-4
T1 construct: Recombinant, full-length IRAK-1 or IRAK-4 enzyme (baculovirus expression system) was added; His (N); made in house
T1 sequence (Q9NWZ3 1-460): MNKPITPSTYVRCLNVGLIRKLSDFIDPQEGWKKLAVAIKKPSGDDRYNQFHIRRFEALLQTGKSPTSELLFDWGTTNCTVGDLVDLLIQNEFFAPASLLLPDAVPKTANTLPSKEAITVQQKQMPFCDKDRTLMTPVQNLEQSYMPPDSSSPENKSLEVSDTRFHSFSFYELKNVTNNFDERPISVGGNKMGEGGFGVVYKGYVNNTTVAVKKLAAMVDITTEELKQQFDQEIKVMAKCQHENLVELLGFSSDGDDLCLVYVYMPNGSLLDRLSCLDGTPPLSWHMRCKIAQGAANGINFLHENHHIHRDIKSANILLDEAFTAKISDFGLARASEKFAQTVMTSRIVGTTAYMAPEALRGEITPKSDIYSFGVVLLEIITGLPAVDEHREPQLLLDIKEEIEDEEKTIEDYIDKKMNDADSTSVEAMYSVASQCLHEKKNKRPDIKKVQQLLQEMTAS
Protocol: Enzymatic inhibition assay. This example provides a method that is useful for evaluating test compounds for inhibition of IRAK-1 or IRAK-4 kinase activity.
(§1) 96-well polystyrene microtiter plates were coated with neutravidin for IRAK-1 or streptavidin for IRAK-4 ([…] in PBS, overnight at 4° C.). The coating solution was removed and in 80 μL/well a kinase reaction mixture was added (for IRAK-1: 20 mM Tris-HCl, pH 7.5, 10 mM MgCl2, 2 mM EGTA, 1 mM NaF, 0.5 mM benzamidine, 1 mM DTT, 3 μM ATP, […] of biotinylated substrate peptide bio-[…], sequence derived from IRAK-1; for IRAK-4: 20 mM Tris-HCl, pH 7.5, 10 mM MgCl2, 2 mM EGTA, 1 mM NaF, 0.5 mM benzamidine, 1 mM DTT, 10% glycerol, 10 μM ATP, […] of biotinylated substrate peptide bio-[…], sequence derived from GFAP).
(§2) At 10 μL/well in DMSO test compounds were added covering a final concentration range from 1 nM to […]. Recombinant, full-length IRAK-1 or IRAK-4 enzyme (baculovirus expression system) was added in 10 μL buffer containing Tris-HCl pH 7.5 20 mM, EGTA 2 mM, benzamidine 0.5 mM, DTT 1 mM, MgCl2 10 mM and glycerol 10% (IRAK-4 only) to initiate the kinase reaction. The reaction mixture was incubated at room temperature for 60 min on a shaker. During this incubation the substrate peptide is being phosphorylated by the kinase and gets captured onto the surface of the wells by neutravidin or streptavidin, respectively. The plate was washed 3× with 150 μL distilled water to terminate the reaction and remove components of the reaction mixture. A conventional chemiluminescent ELISA detection technique was initiated by adding 100 μL/well primary antibody (monoclonal antibody YC10, generated to recognize the phosphorylated epitope in the substrate peptide; used at 1:20,000 dilution for IRAK-1 and 1:10,000 dilution for IRAK-4) premixed with horseradish peroxidase (HRP) conjugated anti-mouse secondary antibody (commercially available from several sources; used at 1:10,000 dilution) in PBS containing 2% BSA. The solution was incubated at room temperature for 40 min on a shaker, then washed 3× with 150 μL of water. 100 μL/well 10× diluted SuperSignal HRP substrate (from Pierce) was added and after 5 min incubation the chemiluminescent signal was captured by a Labsystems LuminoSkan luminometer. The point of 50% inhibition of IRAK-1 or IRAK-4 enzyme activity (IC50) was determined (see Table 1).

IRAK-1 = molecular target: T2, IRAK-1 (Homo sapiens, UniProt P51617); test: Enzymatic inhibition assay, IRAK-1 kinase activity (chemiluminescent ELISA); assay type: biochemical; conditions: for IC50: recombinant full-length IRAK-1, 3 μM ATP, 60 min room temperature, read-out: IC50 values (μM) IRAK-1
T2 construct: Recombinant, full-length IRAK-1 or IRAK-4 enzyme (baculovirus expression system) was added; Flag (N); made in house
Protocol: Enzymatic inhibition assay.
as §1
as §2, with “luminometer.” for “luminometer. The point of 50% inhibition of IRAK-1 or IRAK-4 enzyme activity (IC50) was determined (see Table 1).”

T2 sequence (P51617 whole entry): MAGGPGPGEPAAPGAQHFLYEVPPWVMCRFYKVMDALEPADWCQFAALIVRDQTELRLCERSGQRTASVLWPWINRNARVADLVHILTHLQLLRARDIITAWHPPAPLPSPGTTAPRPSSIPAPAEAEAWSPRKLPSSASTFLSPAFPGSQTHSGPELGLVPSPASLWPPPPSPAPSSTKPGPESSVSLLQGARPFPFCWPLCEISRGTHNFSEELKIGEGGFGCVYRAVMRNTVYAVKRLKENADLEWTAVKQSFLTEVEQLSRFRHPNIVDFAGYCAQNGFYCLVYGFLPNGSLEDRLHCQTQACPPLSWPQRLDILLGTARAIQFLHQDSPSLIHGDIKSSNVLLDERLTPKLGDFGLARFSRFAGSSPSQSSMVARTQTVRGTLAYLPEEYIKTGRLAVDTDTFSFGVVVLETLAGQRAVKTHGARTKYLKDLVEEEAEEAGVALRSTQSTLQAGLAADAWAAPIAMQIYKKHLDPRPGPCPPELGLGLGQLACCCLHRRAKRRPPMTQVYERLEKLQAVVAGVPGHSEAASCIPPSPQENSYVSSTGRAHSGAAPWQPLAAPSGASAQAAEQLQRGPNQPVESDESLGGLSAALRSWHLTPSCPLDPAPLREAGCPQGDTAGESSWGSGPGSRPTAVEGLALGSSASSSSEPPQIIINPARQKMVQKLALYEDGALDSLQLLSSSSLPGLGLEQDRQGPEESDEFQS

SMILES	pIC50 (IRAK-4)	IC50 (IRAK-1) [µM]	IC50 (IRAK-4) [µM]	pIC50 (IRAK-1)
O=C(Nc1nc2ccccc2[nH]1)c1cccc([N+](=O)[O-])c1 [Compound 1, 3-nitro-N-(1H-benzoimidazol-2-yl)-benzamide]	> 5.00	< 10		
Cc1cc2nc(NC(=O)c3cccc([N+](=O)[O-])c3)[nH]c2cc1C [Compound 2, 3-nitro-N-(5,6-dimethyl-1H-benzoimidazol-2-yl)-benzamide]	> 5.00	10 to 30		
O=C(Nc1nc2ccccc2n1CCN1CCOCC1)c1cccc([N+](=O)[O-])c1 [Compound 3, 3-nitro-N-(1-(2-morpholin-4-yl-ethyl)-1H-benzoimidazol-2-yl)-benzamide]	> 5.00	< 10		
O=C(Nc1nc2cc(F)c(F)cc2n1CCN1CCOCC1)c1cccc([N+](=O)[O-])c1 [Compound 4, 3-nitro-N-(1-(2-morpholin-4-yl-ethyl)-5,6-difluoro-1H-benzoimidazol-2-yl)-benzamide]			< 10	> 5.00
COC(=O)CCCn1c(NC(=O)c2cccc([N+](=O)[O-])c2)nc2ccccc21 [Compound 5, 3-nitro-N-(1-(3-carboxymethylpropyl)-1H-benzoimidazol-2-yl)-benzamide]			< 10	> 5.00
CCOC(=O)Cn1c(NC(=O)c2cccc([N+](=O)[O-])c2)nc2cc(F)c(F)cc21 [Compound 6, 3-nitro-N-(1-(ethylacet-2-yl)-5,6-difluoro-1H-benzoimidazol-2-yl)-benzamide]			< 10	4.52 to 5.00
COC(=O)c1ccc2c(c1)nc(NC(=O)c1cccc([N+](=O)[O-])c1)n2CCO [Compound 7a, 3-nitro-N-(1-hydroxyethyl-5-carboxymethyl-1H-benzoimidazol-2-yl)-benzamide]			< 10	> 5.00
CCn1c(NC(=O)c2ccc(OC)cc2)nc2ccccc21 [Compound 8, 4-methoxy-N-(1-ethyl-1H-benzoimidazol-2-yl)-benzamide]			10 to 30	4.52 to 5.00
O=C(Nc1nc2ccccc2n1CCO)c1cccc(Cl)c1 [Compound 9, 3-chloro-N-(1-hydroxyethyl-1H-benzoimidazol-2-yl)-benzamide]			< 10	> 5.00
O=C(Nc1nc2ccccc2n1CCO)c1ccc(Cl)c(Cl)c1 [Compound 10, 3,4-dichloro-N-(1-hydroxyethyl-1H-benzoimidazol-2-yl)-benzamide]			< 10	4.52 to 5.00
COC(=O)c1cccc(C(=O)Nc2nc3ccccc3n2CCN2CCOCC2)c1 [Compound 11, 3-carboxymethyl-N-(1-(2-morpholin-4-yl-ethyl)-1H-benzoimidazol-2-yl)-benzamide]			< 10	> 5.00
CS(=O)(=O)c1cccc(C(=O)Nc2nc3ccccc3n2CCN2CCOCC2)c1 [Compound 12, 3-methanesulfonyl-N-(1-(2-morpholin-4-yl-ethyl)-1H-benzoimidazol-2-yl)-benzamide]			< 10	> 5.00
O=C(Nc1nc2ccccc2n1CCN1CCOCC1)c1ccc([N+](=O)[O-])o1 [Compound 13, 5-nitro-N-(1-(2-morpholin-4-yl-ethyl)-1H-benzoimidazol-2-yl)-2-furamide]			< 10	> 5.00
O=C(Nc1nc2ccccc2n1CCN1CCOCC1)c1cccs1 [Compound 14, N-(1-(2-morpholin-4-yl-ethyl)-1H-benzoimidazol-2-yl)-2-thiophenecarboxamide]			10 to 30	4.52 to 5.00
CC(C)(C)C(=O)Oc1ccc2c(c1)nc(NC(=O)c1cccc([N+](=O)[O-])c1)n2CCCO [Compound 15a, 3-nitro-N-(1-hydroxypropyl-5-(2′,2′-dimethylpropionyl)-1H-benzoimidazol-2-yl)-benzamide]	> 5.00			
O=C(Nc1nc2cc(F)ccc2n1[C@H]1CC[C@H](O)CC1)c1cccc([N+](=O)[O-])c1 [Compound 16, 3-nitro-N-(1-(trans-4-cyclohexanol-1-yl)-5-fluoro-1H-benzoimidazol-2-yl)-benzamide]		< 10	< 10	
O=[N+]([O-])c1cccc(CNc2nc3ccccc3[nH]2)c1 [Compound 17]		10 to 30	10 to 30	
